Experimental data from PMC7306898, “Concentration-Dependent Activity of Hydromethylthionine on Clinical Decline and Brain Atrophy in a Randomized Controlled Trial in Behavioral Variant Frontotemporal Dementia” (Journal of Alzheimer's Disease, 2020).
Like-named read-outs stand apart in the source and are kept apart here.

Assays:
CYP2B6 = test system: CYP2B6; design: method as in Investigator's Brochure; details: ref Investigator's Brochure; cited from earlier work
bvFTD patients [1] = experiment: MMSE, 52-week Phase III trial; format: in vivo, human
From the text: (§1) The two doses were provided in identical blister packages as visually identical oral tablets to be taken for up to 52 weeks. The primary outcome was the Addenbrookes Cognitive Examination – Revised (ACE-R). The Functional Activities Questionnaire (FAQ) and reduction in progression of whole brain atrophy were alternative co-primary outcomes. Other outcomes included: Modified Alzheimer’s Disease Cooperative Study – Clinical Global Impression of Change (Modified-CGIC) determined by a third independent rater; Frontotemporal Dementia Rating Scale (FRS); MMSE (from MMSE items incorporated into ACE-R); Addenbrookes Cognitive Examination – III (a revised version of ACE-R which excludes MMSE items subject to copyright restrictions); change in brain volume measured by MRI in frontal and temporal lobes (FTV) and lateral ventricles (LVV); and the effect of hydromethylthionine in patients with known genetic mutations associated with bvFTD. Blood was collected prospectively for the purpose of population PK analyses.
(§2) The primary analyses were specified as a mixed model, repeated-measures analysis with an unstructured covariance matrix and no imputation for missing data. […]

bvFTD patients [2] = experiment: Frontotemporal Dementia Rating Scale (FRS), 52-week Phase III trial; format: in vivo, human
From the text: as §1, §2

[3] = Population PK: plasma-modeled parent MT Cmax,ss; format: in vivo, human; details: for Cmax: both sexes, human, plasma, oral
Experimental: Blood samples for assessment of parent MT, N-desmethyl MT, and total MT (sum of parent MT and a labile LMT conjugate), were collected from each patient on the first treatment visit (two samples: pre-dose and approximately 3.5 h after the dose) and at each subsequent on-treatment visit. The protocol specified that PK plasma sampling was to be conducted only at sites with adequate facilities (i.e., a refrigerated centrifuge and adequate capability to freeze samples reliably). Blinded analyses were conducted at the University of Aberdeen GLP Test Facility. MT levels in plasma were measured using liquid chromatography-tandem mass spectrometry assay. The method was validated for use in the Phase III studies over the range 0.2 to 10 ng/ml. […] Model development and estimation of steady state maximum plasma concentration (Cmax,ss) were determined independently by the Institute of Clinical Pharmacodynamics (ICPD, NY, USA). Cmax,ss estimates using a model validated in Phase I studies were based on in-clinic plasma concentration data obtained on Day 1 when the dose-sampling interval was accurately recorded. The percentage of patients with Day 1 exposure levels below the lower calibration limit of the assay was used to define a proxy for placebo in post-hoc binary statistical comparisons of patients with low and high exposure to the drug with a view to informing the design of a future placebo-controlled trial. Change in ACE-R, ACE-III, FAQ, MMSE, Modified-CGIC, FRS, whole brain volume (WBV), lateral ventricular volume (LVV), and frontotemporal volume (FTV), as well as UPDRS Part III, were expressed as a function of Cmax,ss estimates grouped into four groups described in the results section. Cmax,ss values outside 3x the interquartile range were excluded from determination of concentration-response relationships, but were included in inferential statistical analyses.

bvFTD patients [4] = experiment: UPDRS Part III motor safety outcome, 52-week Phase III trial; format: in vivo, human
Experimental: The primary analyses were specified as a mixed model, repeated-measures analysis with an unstructured covariance matrix and no imputation for missing data. The model included visit (three levels corresponding to assessments at weeks 16, 32, and 52), treatment group (two levels, 4 mg or 100 mg twice a day), a visit by treatment group interaction term, use of AD-labelled medications (two levels, using or not using), geographic region (three levels: North America, Asia/Australia, Europe), and baseline value of the variable analyzed. The individual comparisons were implemented through contrasts. The Bonferroni-Holm correction was used to take account of multiplicity arising from alternative co-primary outcomes (FAQ and whole brain atrophy). We used the same method for all secondary analyses in predefined gated sequences such that no further adjustment of alpha (0.05) was needed.
Blood samples for assessment of parent MT, N-desmethyl MT, and total MT (sum of parent MT and a labile LMT conjugate), were collected from each patient on the first treatment visit (two samples: pre-dose and approximately 3.5 h after the dose) and at each subsequent on-treatment visit. […] MT levels in plasma were measured using liquid chromatography-tandem mass spectrometry assay. […] Model development and estimation of steady state maximum plasma concentration (Cmax,ss) were determined independently by the Institute of Clinical Pharmacodynamics (ICPD, NY, USA). Cmax,ss estimates using a model validated in Phase I studies were based on in-clinic plasma concentration data obtained on Day 1 when the dose-sampling interval was accurately recorded. […] Change in ACE-R, ACE-III, FAQ, MMSE, Modified-CGIC, FRS, whole brain volume (WBV), lateral ventricular volume (LVV), and frontotemporal volume (FTV), as well as UPDRS Part III, were expressed as a function of Cmax,ss estimates grouped into four groups described in the results section. […]

[5] = 8 mg/day (n = 110), modeled change from baseline at 52 weeks
[6] = 200 mg/day (n = 104) vs 8 mg/day, 52 weeks

CN(C)c1ccc2c(c1)Sc1cc(N(C)C)ccc1N2 [hydromethylthionine, leuco-methylthioninium bis(hydromethanesulphonate)]
induction of CYP2B6 (CYP2B6): w eak in ducer
MMSE: Decline±SEM for LMTM 8 mg/day group (bvFTD patients [1]; [5]): –3.41±0.53
MMSE: Difference±SEM from LMTM 8 mg/day for 200 mg/day (bvFTD patients [1]; [6]): –0.12±0.80
FRS: Decline±SEM for LMTM 8 mg/day group (bvFTD patients [2]; [5]): –0.1240±0.0136
FRS: Difference±SEM from LMTM 8 mg/day for 200 mg/day (bvFTD patients [2]; [6]): 0.0075±0.0206
Plasma-modeled parent MT Cmax,ss, Range ([3]; 200 mg/day): 6.800 to 14.235 ng/mL
plasma levels at 200 mg/day relative to the highest level seen at 8 mg/day ([3]; 80 patients receiving 200 mg/day): 16 fold
Cmax ([3]; 8 mg/day, 8 mg/day – Group 1, read-out: Plasma-modeled parent MT Cmax,ss, Mean (SD)): 0.321 ng/mL
Cmax ([3]; 8 mg/day, 8 mg/day – Group 1, read-out: Plasma-modeled parent MT Cmax,ss, Range): 0.281 to 0.346 ng/mL
Cmax ([3]; 8 mg/day, 8 mg/day – Group 2, read-out: Plasma-modeled parent MT Cmax,ss, Mean (SD)): 0.355 ng/mL
Cmax ([3]; 8 mg/day, 8 mg/day – Group 2, read-out: Plasma-modeled parent MT Cmax,ss, Range): 0.346 to 0.372 ng/mL
Cmax ([3]; 8 mg/day, 8 mg/day – Group 3, read-out: Plasma-modeled parent MT Cmax,ss, Mean (SD)): 0.387 ng/mL
Cmax ([3]; 8 mg/day, 8 mg/day – Group 3, read-out: Plasma-modeled parent MT Cmax,ss, Range): 0.373 to 0.409 ng/mL
Cmax ([3]; 8 mg/day, 8 mg/day – Group 4, read-out: Plasma-modeled parent MT Cmax,ss, Mean (SD)): 0.47 ng/mL
Cmax ([3]; 8 mg/day, 8 mg/day – Group 4, read-out: Plasma-modeled parent MT Cmax,ss, Range): 0.413 to 0.583 ng/mL
Cmax ([3]; 200 mg/day, read-out: Plasma-modeled parent MT Cmax,ss, Mean (SD)): 9.04 ng/mL
Cmax ([3]; 200 mg/day, read-out: Plasma-modeled parent MT Cmax,ss, Range): 6.8 to 14.2 ng/mL
UPDRS – part III: Decline±SEM for LMTM 8 mg/day group (bvFTD patients [4]; [5]): 3.90±1.06
reduction in decline, UPDRS (bvFTD patients [4]; 8 mg/day, plasma levels above vs below […] threshold): 75%
UPDRS – part III: Difference±SEM from LMTM 8 mg/day for 200 mg/day (bvFTD patients [4]; [6]): –1.40±1.61
